{"source": "patent US11053204B2", "about": "“Pyrimidinyloxy benzene derivatives as herbicides” (FMC Corporation, priority 2015, dated 2021)", "assay_type_in_all_cases": "in vivo", "key": {"[1]": {"test_system": "galium (catchweed bedstraw, Galium aparine)", "assay": "Test C preemergence, plant response rating"}, "[2]": {"test_system": "surinam grass (Brachiaria decumbens)", "assay": "Test C preemergence, plant response rating"}, "[3]": {"test_system": "foxtail, giant (giant foxtail, Setaria faberii)", "assay": "Test C postemergence, plant response rating", "details": "for Foxtail, Giant plant response rating: scale 0 to 100 (0 no effect, 100 complete control)", "summary_of_the_method": "(§1)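 Pre-emergence: seeds sown in loam soil–sand blend or silt loam and sprayed with test chemicals in a non-phytotoxic solvent mixture with surfactant. Post-emergence: plants 2 to 18 cm (1- to 4-leaf stage) in peat-based potting medium, same formulation. Greenhouse 13 to 15 d; visual rating 0 (no effect) to 100 (complete control) versus controls.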"}, "[4]": {"test_system": "crabgrass, large (large crabgrass, Digitaria sanguinalis)", "assay": "Test C postemergence, plant response rating", "details": "for Crabgrass, Large plant response rating: scale 0 to 100 (0 no effect, 100 complete control)", "summary_of_the_method": "as §1"}, "[5]": {"test_system": "blackgrass (Alopecurus myosuroides)", "assay": "Test C postemergence, plant response rating", "details": "for Plant response rating, Blackgrass: scale 0 to 100; for Blackgrass plant response rating: scale 0 to 100 (0 no effect, 100 complete control)", "summary_of_the_method": "as §1"}, "[6]": {"test_system": "waterhemp (common waterhemp, Amaranthus rudis)", "assay": "Test C postemergence, plant response rating", "summary_of_the_method": "as §1"}, "[7]": {"test_system": "velvetleaf (Abutilon theophrasti)", "assay": "Test C postemergence, plant response rating", "summary_of_the_method": "as §1"}, "[8]": {"test_system": "lambsquarters (Chenopodium album)", "assay": "Test C postemergence, plant response rating", "details": "for Lambsquarters plant response rating: scale 0 to 100 (0 no effect, 100 complete control)", "summary_of_the_method": "as §1"}, "[9]": {"test_system": "wheat (winter wheat, Triticum aestivum)", "assay": "Test C postemergence, plant response rating", "summary_of_the_method": "as §1"}, "[10]": {"test_system": "oat, wild (wild oat Avena fatua)", "assay": "Test C postemergence, plant response rating", "details": "for Oat, Wild plant response rating: scale 0 to 100 (0 no effect, 100 complete control)", "summary_of_the_method": "as §1"}, "[11]": {"test_system": "nutsedge, yellow (yellow nutsedge, Cyperus esculentus)", "assay": "Test C postemergence, plant response rating", "details": "for Nutsedge, Yellow plant response rating: scale 0 to 100 (0 no effect, 100 complete control)", "summary_of_the_method": "as §1"}, "[12]": {"test_system": "ragweed (common ragweed, Ambrosia elatior)", "assay": "Test C postemergence, plant response rating", "details": "for Ragweed plant response rating: scale 0 to 100 (0 no effect, 100 complete control)", "summary_of_the_method": "as §1"}, "[13]": {"test_system": "oilseed rape (Brassica napus)", "assay": "Test C postemergence, plant response rating", "details": "for Oilseed Rape plant response rating: scale 0 to 100 (0 no effect, 100 complete control)", "summary_of_the_method": "as §1"}, "[14]": {"test_system": "galium (catchweed bedstraw, Galium aparine)", "assay": "Test C postemergence, plant response rating", "details": "for Galium plant response rating: scale 0 to 100 (0 no effect, 100 complete control)", "summary_of_the_method": "as §1"}, "[15]": {"test_system": "ryegrass, Italian (Italian ryegrass, Lolium multiflorum)", "assay": "Test C postemergence, plant response rating", "details": "for Ryegrass, Italian plant response rating: scale 0 to 100 (0 no effect, 100 complete control)", "summary_of_the_method": "as §1"}, "soybean (Glycine max)": {"test_system": "soybean (Glycine max)", "assay": "Test C postemergence, plant response rating", "details": "for Soybean plant response rating: scale 0 to 100 (0 no effect, 100 complete control)", "summary_of_the_method": "as §1"}, "corn (Zea mays)": {"test_system": "corn (Zea mays)", "assay": "Test C postemergence, plant response rating", "details": "for Corn plant response rating: scale 0 to 100 (0 no effect, 100 complete control)", "summary_of_the_method": "as §1"}, "kochia (Kochia scoparia)": {"test_system": "kochia (Kochia scoparia)", "assay": "Test C preemergence, plant response rating"}, "[16]": {"test_system": "oat, wild (wild oat Avena fatua)", "assay": "Test C preemergence, plant response rating"}, "[17]": {"details": "125 g ai/ha, scale 0 to 100 (0 no effect, 100 complete control)"}}}
{"smiles": "CCCCC(=O)c1c(Br)cccc1Oc1ncc(Cl)cn1", "note": "[Compound 79]", "values": [{"measurement": "Plant response rating, Galium", "setting": "[1]; 16 g ai/ha, scale 0 to 100", "value": 0}, {"measurement": "Plant response rating, Galium", "setting": "[1]; 31 g ai/ha, scale 0 to 100", "value": 0}, {"measurement": "Plant response rating, Galium", "setting": "[1]; 62 g ai/ha, scale of 0 to 100", "value": 70}, {"measurement": "Plant response rating, Galium", "setting": "[1]; 125 g ai/ha, scale of 0 to 100", "value": 5}, {"measurement": "Plant response rating, Surinam Grass", "setting": "[2]; 16 g ai/ha, scale 0 to 100", "value": 5}, {"measurement": "Plant response rating, Surinam Grass", "setting": "[2]; 31 g ai/ha, scale 0 to 100", "value": 30}, {"measurement": "Plant response rating, Surinam Grass", "setting": "[2]; 62 g ai/ha, scale 0 to 100", "value": 50}, {"measurement": "Plant response rating, Surinam Grass", "setting": "[2]; 125 g ai/ha, scale of 0 to 100", "value": 85}, {"measurement": "Plant response rating, Foxtail, Giant", "setting": "[3]; 16 g ai/ha, scale of 0 to 100", "value": 10}, {"measurement": "Plant response rating, Foxtail, Giant", "setting": "[3]; 31 g ai/ha, scale 0 to 100", "value": 20}, {"measurement": "Foxtail, Giant plant response rating", "setting": "[3]; 62 g ai/ha", "value": 25}, {"measurement": "Foxtail, Giant plant response rating", "setting": "[3]; 125 g ai/ha", "value": 40}, {"measurement": "Plant response rating, Crabgrass, Large", "setting": "[4]; 16 g ai/ha, scale of 0 to 100", "value": 10}, {"measurement": "Plant response rating, Crabgrass, Large", "setting": "[4]; 31 g ai/ha, scale 0 to 100", "value": 25}, {"measurement": "Crabgrass, Large plant response rating", "setting": "[4]; 62 g ai/ha", "value": 70}, {"measurement": "Crabgrass, Large plant response rating", "setting": "[4]; 125 g ai/ha", "value": 65}, {"measurement": "Plant response rating, Blackgrass", "setting": "[5]; 16 g ai/ha", "value": 20}, {"measurement": "Plant response rating, Blackgrass", "setting": "[5]; 31 g ai/ha", "value": 10}, {"measurement": "Blackgrass plant response rating", "setting": "[5]; 62 g ai/ha", "value": 20}, {"measurement": "Blackgrass plant response rating", "setting": "[5]; 125 g ai/ha", "value": 30}, {"measurement": "Plant response rating, Waterhemp", "setting": "[6]; 16 g ai/ha, scale of 0 to 100", "value": 95}, {"measurement": "Plant response rating, Waterhemp", "setting": "[6]; 31 g ai/ha, scale 0 to 100", "value": 95}, {"measurement": "Waterhemp plant response rating", "setting": "[6]; [17]", "value": 98}, {"measurement": "Plant response rating, Velvetleaf", "setting": "[7]; 16 g ai/ha, scale of 0 to 100", "value": 30}, {"measurement": "Plant response rating, Velvetleaf", "setting": "[7]; 31 g ai/ha, scale 0 to 100", "value": 75}, {"measurement": "Velvetleaf plant response rating", "setting": "[7]; [17]", "value": 90}, {"measurement": "Plant response rating, Lambsquarters", "setting": "[8]; 16 g ai/ha, scale of 0 to 100", "value": 75}, {"measurement": "Plant response rating, Lambsquarters", "setting": "[8]; 31 g ai/ha, scale 0 to 100", "value": 85}, {"measurement": "Lambsquarters plant response rating", "setting": "[8]; 62 g ai/ha", "value": 90}, {"measurement": "Lambsquarters plant response rating", "setting": "[8]; 125 g ai/ha", "value": 100}, {"measurement": "Plant response rating, Wheat", "setting": "[9]; 16 g ai/ha, scale of 0 to 100", "value": 5}, {"measurement": "Plant response rating, Wheat", "setting": "[9]; 31 g ai/ha, scale 0 to 100", "value": 5}, {"measurement": "Wheat plant response rating", "setting": "[9]; [17]", "value": 15}, {"measurement": "Plant response rating, Oat, Wild", "setting": "[10]; 16 g ai/ha, scale of 0 to 100", "value": 15}, {"measurement": "Plant response rating, Oat, Wild", "setting": "[10]; 31 g ai/ha, scale 0 to 100", "value": 60}, {"measurement": "Oat, Wild plant response rating", "setting": "[10]; 62 g ai/ha", "value": 45}, {"measurement": "Oat, Wild plant response rating", "setting": "[10]; 125 g ai/ha", "value": 35}, {"measurement": "Plant response rating, Nutsedge, Yellow", "setting": "[11]; 16 g ai/ha, scale of 0 to 100", "value": 0}, {"measurement": "Plant response rating, Nutsedge, Yellow", "setting": "[11]; 31 g ai/ha, scale 0 to 100", "value": 5}, {"measurement": "Nutsedge, Yellow plant response rating", "setting": "[11]; 62 g ai/ha", "value": 5}, {"measurement": "Nutsedge, Yellow plant response rating", "setting": "[11]; 125 g ai/ha", "value": 5}, {"measurement": "Plant response rating, Ragweed", "setting": "[12]; 16 g ai/ha, scale of 0 to 100", "value": 30}, {"measurement": "Plant response rating, Ragweed", "setting": "[12]; 31 g ai/ha, scale 0 to 100", "value": 20}, {"measurement": "Ragweed plant response rating", "setting": "[12]; 62 g ai/ha", "value": 75}, {"measurement": "Ragweed plant response rating", "setting": "[12]; 125 g ai/ha", "value": 65}, {"measurement": "Plant response rating, Oilseed Rape", "setting": "[13]; 16 g ai/ha, scale of 0 to 100", "value": 80}, {"measurement": "Plant response rating, Oilseed Rape", "setting": "[13]; 31 g ai/ha, scale 0 to 100", "value": 98}, {"measurement": "Oilseed Rape plant response rating", "setting": "[13]; 62 g ai/ha", "value": 98}, {"measurement": "Oilseed Rape plant response rating", "setting": "[13]; 125 g ai/ha", "value": 100}, {"measurement": "Plant response rating, Galium", "setting": "[14]; 16 g ai/ha, scale of 0 to 100", "value": 75}, {"measurement": "Plant response rating, Galium", "setting": "[14]; 31 g ai/ha, scale 0 to 100", "value": 80}, {"measurement": "Galium plant response rating", "setting": "[14]; 62 g ai/ha", "value": 85}, {"measurement": "Galium plant response rating", "setting": "[14]; 125 g ai/ha", "value": 95}, {"measurement": "Plant response rating, Ryegrass, Italian", "setting": "[15]; 16 g ai/ha, scale of 0 to 100", "value": 5}, {"measurement": "Plant response rating, Ryegrass, Italian", "setting": "[15]; 31 g ai/ha, scale 0 to 100", "value": 30}, {"measurement": "Ryegrass, Italian plant response rating", "setting": "[15]; 62 g ai/ha", "value": 25}, {"measurement": "Ryegrass, Italian plant response rating", "setting": "[15]; 125 g ai/ha", "value": 30}, {"measurement": "Plant response rating, Soybean", "setting": "soybean (Glycine max); 16 g ai/ha, scale of 0 to 100", "value": 60}, {"measurement": "Plant response rating, Soybean", "setting": "soybean (Glycine max); 31 g ai/ha, scale 0 to 100", "value": 70}, {"measurement": "Soybean plant response rating", "setting": "soybean (Glycine max); 62 g ai/ha", "value": 65}, {"measurement": "Soybean plant response rating", "setting": "soybean (Glycine max); 125 g ai/ha", "value": 65}, {"measurement": "Plant response rating, Corn", "setting": "corn (Zea mays); 16 g ai/ha, scale of 0 to 100", "value": 15}, {"measurement": "Plant response rating, Corn", "setting": "corn (Zea mays); 31 g ai/ha, scale 0 to 100", "value": 25}, {"measurement": "Corn plant response rating", "setting": "corn (Zea mays); 62 g ai/ha", "value": 20}, {"measurement": "Corn plant response rating", "setting": "corn (Zea mays); 125 g ai/ha", "value": 20}, {"measurement": "Plant response rating, Kochia", "setting": "kochia (Kochia scoparia); 16 g ai/ha, scale 0 to 100", "value": 5}, {"measurement": "Plant response rating, Kochia", "setting": "kochia (Kochia scoparia); 31 g ai/ha, scale 0 to 100", "value": 90}, {"measurement": "Plant response rating, Kochia", "setting": "kochia (Kochia scoparia); 62 g ai/ha, scale 0 to 100", "value": 90}, {"measurement": "Plant response rating, Kochia", "setting": "kochia (Kochia scoparia); 125 g ai/ha, scale of 0 to 100", "value": 100}, {"measurement": "Plant response rating, Oat, Wild", "setting": "[16]; 16 g ai/ha, scale 0 to 100", "value": 0}, {"measurement": "Plant response rating, Oat, Wild", "setting": "[16]; 31 g ai/ha, scale 0 to 100", "value": 0}, {"measurement": "Plant response rating, Oat, Wild", "setting": "[16]; 62 g ai/ha, scale 0 to 100", "value": 5}, {"measurement": "Plant response rating, Oat, Wild", "setting": "[16]; 125 g ai/ha, scale of 0 to 100", "value": 40}]}
